The term IC50 denotes the concentration that gives 50% inhibition.

One compound from ChEMBL document CHEMBL5236660, “Design, synthesis, and biological evaluation of quinoxalinone derivatives as potent BRD4 inhibitors” (Bioorg Med Chem, 2023) can be followed below.

For data set [1], the system named is HepG2. The data set can be described thus: Induction of apoptosis in human HepG2 cells assessed as total apoptotic cells at 0.625 uM incubated for 24 hrs by Annexin-V/PI staining based flow cytometry (Rvb=5.14%). Format: functional. For orientation: A flow cytometer gives signals particle by particle.
For data set [2], the system named is HepG2. The data set can be described thus: Induction of cell cycle arrest in human HepG2 cells assessed as accumulation at S phase at 1.25 uM incubated for 24 hrs by flow cytometry (Rvb= 20.1%). Format: functional.
For data set [3], the system named is HepG2. The data set can be described thus: Induction of cell cycle arrest in human HepG2 cells assessed as accumulation at G2/M phase at 0.625 uM incubated for 24 hrs by flow cytometry (Rvb= 14.05%). Format: functional.
Data set [4] relates to HepG2. The data set can be described thus: Antimigratory activity against human HepG2 cells assessed as increase in Occludin expression at 0.625 to 2.5 uM incubated 24 hrs by Western blot analysis. The note with it: dose 0.625-2.5 µM. Format: functional, cell-based. Background: Immunoblotting shows a protein as a band on a membrane.
Data set [5] relates to HepG2. The data set can be described thus: Induction of cell cycle arrest in human HepG2 cells assessed as accumulation at G0/G1 phase at 1.25 uM incubated for 24 hrs by flow cytometry (Rvb= 46.5%). Format: functional.
Data set [6] relates to HepG2. As to the kind of experiment: Antiproliferative activity against human HepG2 cells assessed as reduction in cell viability incubated for 72 hrs by MTT assay. Format: functional, cell-based. The note with it: HepG2, 72 h. On the technique in general: Formazan colour is commonly taken as a measure of viable cells.
Data set [7] has as its system HepG2. As to the kind of experiment: Induction of apoptosis in human HepG2 cells assessed as late apoptotic cells at 2.5 uM incubated for 24 hrs by Annexin-V/PI staining based flow cytometry (Rvb=0.66%). Format: functional.
In data set [8] the test system is HepG2. As to the kind of experiment: Induction of apoptosis in human HepG2 cells assessed as early apoptotic cells at 1.25 uM incubated for 24 hrs by Annexin-V/PI staining based flow cytometry (Rvb=4.48%). Format: functional.
In data set [9] the test system is HepG2. As to the kind of experiment: Induction of apoptosis in human HepG2 cells assessed as total apoptotic cells at 2.5 uM incubated for 24 hrs by Annexin-V/PI staining based flow cytometry (Rvb=5.14%). Format: functional.
Another data set has as its system HT-29. As to the kind of experiment: Antiproliferative activity against human HT-29 cells assessed as reduction in cell viability incubated for 72 hrs by MTT assay. Format: functional, cell-based. The conditions noted are these: HT-29, 72 h.
Data set [10] is described as follows: Cytotoxicity against human GES1 cells assessed as reduction in cell viability incubated for 72 hrs by MTT assay. Format: toxicity, cell-based.

On to `CC(=O)Nc1ccc(Oc2ccc(F)cc2F)c(-c2ccc3[nH]c(=O)c(C)nc3c2)c1`, for which the Activity in the data set with HepG2 [1] is 6.26%; with HepG2 [2], 10.2%; in the data set on HepG2 [3], 15.5%; in the data set with HepG2 [4], “Dose-Dependent Effect”; in the data set with HepG2 [5], 51%; with HepG2 [7], 1.39%. Also, the values for the Activity with HepG2 [8] and in the data set with HepG2 [9] were 6.32% and 8.61%, respectively. Further, the IC50 in the data set with HepG2 [6] is 1.13 µM; in the data set with HT-29, greater than 50 µM. Also, in data set [10], the IC50 at 72 h came out at 57.2 µM.
